Assay results published in the NIST ThermoML archive (doi:10.1016/j.tca.2014.11.009).
± gives the expanded uncertainty stated by the source.

Assays:
[1] = 100 kPa, Liquid; for speed of sound: Frequency=3 MHz, Sing-around technique in a fixed-path interferometer; for mass density: Vibrating tube method
[2] = xn = mol fraction of the nth substance listed; settings: 100 kPa, Liquid, x2 = 0; for speed of sound: Frequency=3 MHz, Sing-around technique in a fixed-path interferometer; for mass density: Vibrating tube method

SMILES | speed of sound ([1]; 283.15 K) [m/s] | mass density ([1]; 283.15 K) [kg/m3] | speed of sound ([1]; 293.15 K) [m/s] | mass density ([1]; 293.15 K) [kg/m3] | speed of sound ([1]; 303.15 K) [m/s] | mass density ([1]; 303.15 K) [kg/m3] | speed of sound ([1]; 313.15 K) [m/s] | mass density ([1]; 313.15 K) [kg/m3] | speed of sound ([2]; 283.15 K) [m/s] | mass density ([2]; 283.15 K) [kg/m3] | speed of sound ([2]; 293.15 K) [m/s] | mass density ([2]; 293.15 K) [kg/m3] | speed of sound ([2]; 303.15 K) [m/s] | mass density ([2]; 303.15 K) [kg/m3] | speed of sound ([2]; 313.15 K) [m/s] | mass density ([2]; 313.15 K) [kg/m3]
O=Cc1ccco1 [2-furaldehyde] | 1495.4 ± 1.6 | 1169.93 ± 0.37 | 1458.8 ± 1.6 | 1159.33 ± 0.36 | 1422.5 ± 1.6 | 1148.69 ± 0.35 | 1386.5 ± 1.6 | 1138.01 ± 0.34 |  |  |  |  |  |  |  | 
CCCCO [butan-1-ol] | 1291.4 ± 1.6 | 817.21 ± 0.24 | 1257.5 ± 1.6 | 809.65 ± 0.24 | 1223.6 ± 1.6 | 802 ± 0.24 | 1190.2 ± 1.6 | 794.21 ± 0.24 |  |  |  |  |  |  |  | 
CCCCO [butan-1-ol] + O=Cc1ccco1 |  |  |  |  |  |  |  |  | 1291.4 ± 1.6 | 817.21 ± 0.24 | 1257.5 ± 1.6 | 809.65 ± 0.24 | 1223.6 ± 1.6 | 802 ± 0.24 | 1190.2 ± 1.6 | 794.21 ± 0.24
CCC(C)O (stereo unspecified) [butan-2-ol] | 1268.4 ± 1.6 | 815.39 ± 0.24 | 1232.4 ± 1.6 | 807.34 ± 0.24 | 1196.1 ± 1.6 | 798.99 ± 0.24 | 1159.5 ± 1.6 | 790.28 ± 0.24 |  |  |  |  |  |  |  | 
CCC(C)O (stereo unspecified) [butan-2-ol] + O=Cc1ccco1 |  |  |  |  |  |  |  |  | 1268.4 ± 1.6 | 815.39 ± 0.24 | 1232.4 ± 1.6 | 807.34 ± 0.24 | 1196.1 ± 1.6 | 798.99 ± 0.24 | 1159.5 ± 1.6 | 790.28 ± 0.24
CCO [ethanol] | 1197.3 ± 1.6 | 798.51 ± 0.24 | 1162.5 ± 1.6 | 789.99 ± 0.24 | 1128.3 ± 1.6 | 781.38 ± 0.24 | 1094.6 ± 1.6 | 772.64 ± 0.24 |  |  |  |  |  |  |  | 
CCO [ethanol] + O=Cc1ccco1 |  |  |  |  |  |  |  |  | 1197.3 ± 1.6 | 798.51 ± 0.24 | 1162.5 ± 1.6 | 789.99 ± 0.24 | 1128.3 ± 1.6 | 781.38 ± 0.24 | 1094.6 ± 1.6 | 772.64 ± 0.24
